Data as given in patent US20140066324A1, “GENE EXPRESSION SIGNATURE IN SKIN PREDICTS RESPONSE TO MYCOPHENOLATE MOFETIL” (NORTHWESTERN UNIVERSITY, priority 2011, published 2014).

Legend:
skin fibrosis = experiment: Morphology of skin biopsy specimens, H&E staining of paraffin embedded sections; type: in vivo, human
Procedure: Patients seen at the Northwestern Scleroderma Program who met American College of Rheumatology criteria for SSc with a mRSS≧16 and would be receiving mycophenolate mofetil for the indication of progressive skin tightening were assessed. All patients provided written informed consent in accordance with the Institutional Review Board Guidelines of Northwestern University. Patients underwent a standardized physical exam, including mRSS performed by one clinician at study entry (prior to treatment) and at 6 months and 12 months post MMF initiation. […] from clinically involved skin (forearm) and clinically uninvolved skin (back) from the non-dominant side of the body. Two biopsies (one from forearm and back) were placed in RNAlater® (Applied Biosystems, Ambion®, Carlsbad, Calif., U.S.A.) and used for DNA microarray analysis and the other biopsy was placed in 10% neutral buffered formalin and used for histological analyses.
To confirm the physical exam finding of softened skin in MMF-responders, the morphology of skin biopsy specimens was examined using routine H&E staining of paraffin embedded sections.

[1] = SSc patients; cited from earlier work

Compound | extent of skin fibrosis, pre- vs post-treatment biopsies (skin fibrosis; MMF responders) | skin fibrosis and dermal appendages (skin fibrosis; MMF-nonresponder) | clinical response [1]
COc1c(C)c2c(c(O)c1C/C=C(\C)CCC(=O)OCCN1CCOCC1)C(=O)OC2 [MMF, mycophenolate mofetil] | clear differences in the extent of fibrosis between pre- and post-treatment biopsies in responders | greater degree in skin fibrosis and a further loss of the normal dermal appendages | –
rituximab | – | – | no clinical benefit
